{"source": "patent US20230053540A1", "about": "“TREATMENT OF LIVER INJURY” (Massachusetts Institute of Technology, priority 2019, published 2023)", "test_system": "hepatocytes", "experiment": "Seq-Well scRNA-Seq of hepatocytes after APAP overdose (signature scores, DEG vs untreated)", "format": "in vivo, mouse", "settings": "cluster A6 (APAP 6 hr)"}
{"compound": "CC(=O)Nc1ccc(O)cc1", "note": "[APAP, acetaminophen]", "values": [{"measurement": "Cxadr avg_logFC", "value": 0.6184}, {"measurement": "Cxadr pct.1", "value": 0.606}, {"measurement": "Cyp4a14 avg_logFC", "value": 0.5996}, {"measurement": "Cyp4a14 pct.1", "value": 0.776}, {"measurement": "D10Wsu102e avg_logFC", "value": 0.5134}, {"measurement": "D10Wsu102e pct.1", "value": 0.37}, {"measurement": "Ddx3x avg_logFC", "value": 0.4893}, {"measurement": "Ddx3x pct.1", "value": 0.692}, {"measurement": "Ddx5 avg_logFC", "value": 0.4732}, {"measurement": "Ddx5 pct.1", "value": 0.685}, {"measurement": "Ddx21 avg_logFC", "value": 0.6398}, {"measurement": "Dgkd avg_logFC", "value": 0.3462}, {"measurement": "Dgkd pct.1", "value": 0.282}, {"measurement": "Dkc1 avg_logFC", "value": 0.3232}, {"measurement": "Dkc1 pct.1", "value": 0.315}, {"measurement": "Dot1l avg_logFC", "value": 0.3695}, {"measurement": "Dot1l pct.1", "value": 0.282}, {"measurement": "Dusp5 avg_logFC", "value": 0.2889}, {"measurement": "Dusp5 pct.1", "value": 0.196}, {"measurement": "Dusp6 avg_logFC", "value": 0.4768}, {"measurement": "Dusp6 pct.1", "value": 0.482}, {"measurement": "Dusp16 avg_logFC", "value": 0.4153}, {"measurement": "Dusp16 pct.1", "value": 0.372}, {"measurement": "Eaf1 avg_logFC", "value": 0.5066}, {"measurement": "Eaf1 pct.1", "value": 0.427}, {"measurement": "Efhd2 avg_logFC", "value": 0.5545}, {"measurement": "Efhd2 pct.1", "value": 0.468}, {"measurement": "Eif1a avg_logFC", "value": 0.6585}, {"measurement": "Eif1a pct.1", "value": 0.599}, {"measurement": "Eif4g2 avg_logFC", "value": 0.3399}, {"measurement": "Eif4g2 pct.1", "value": 0.757}, {"measurement": "Epas1 avg_logFC", "value": 0.6264}, {"measurement": "Epas1 pct.1", "value": 0.604}, {"measurement": "Etf1 pct.1", "value": 0.606}, {"measurement": "Etnppl avg_logFC", "value": 0.4038}, {"measurement": "Etnppl pct.1", "value": 0.706}, {"measurement": "Ets2 avg_logFC", "value": 0.6277}, {"measurement": "Ets2 pct.1", "value": 0.415}, {"measurement": "Fam107b avg_logFC", "value": 0.4224}, {"measurement": "Fam107b pct.1", "value": 0.449}, {"measurement": "Fam134b avg_logFC", "value": 0.6202}, {"measurement": "Fam134b pct.1", "value": 0.678}, {"measurement": "Fcgr3 avg_logFC", "value": 0.294}, {"measurement": "Fcgr3 pct.1", "value": 0.107}, {"measurement": "Fcna avg_logFC", "value": 0.3469}, {"measurement": "Fcna pct.1", "value": 0.124}, {"measurement": "Fxyd5 avg_logFC", "value": 0.2697}, {"measurement": "Fxyd5 pct.1", "value": 0.138}, {"measurement": "Gclc avg_logFC", "value": 1.893}, {"measurement": "Gclc pct.1", "value": 0.962}, {"measurement": "Gcnt2 avg_logFC", "value": 0.4614}, {"measurement": "Gcnt2 pct.1", "value": 0.372}, {"measurement": "Gm10800 avg_logFC", "value": 0.5383}, {"measurement": "Gm10800 pct.1", "value": 0.115}, {"measurement": "Gm15564 avg_logFC", "value": 0.6079}, {"measurement": "Gm15564 pct.1", "value": 0.983}, {"measurement": "Gm23388 avg_logFC", "value": 0.4216}, {"measurement": "Gm23388 pct.1", "value": 0.222}, {"measurement": "Gm24187 avg_logFC", "value": 0.3969}, {"measurement": "Gm24187 pct.1", "value": 0.2}, {"measurement": "Gm24245 avg_logFC", "value": 0.5737}, {"measurement": "Gm24245 pct.1", "value": 0.422}, {"measurement": "Gm26924 avg_logFC", "value": 0.3029}, {"measurement": "Gm26924 pct.1", "value": 1}, {"measurement": "Gnl3 avg_logFC", "value": 0.477}, {"measurement": "Gnl3 pct.1", "value": 0.501}, {"measurement": "Gpt2 avg_logFC", "value": 0.3682}, {"measurement": "Gpt2 pct.1", "value": 0.764}, {"measurement": "Gsta1 avg_logFC", "value": 0.4204}, {"measurement": "Gsta1 pct.1", "value": 0.32}, {"measurement": "Gtpbp4 avg_logFC", "value": 0.4579}, {"measurement": "Gtpbp4 pct.1", "value": 0.477}, {"measurement": "H2-Ab1 avg_logFC", "value": 0.4491}, {"measurement": "H2-Ab1 pct.1", "value": 0.158}, {"measurement": "H2-Eb1 avg_logFC", "value": 0.3214}, {"measurement": "H2-Eb1 pct.1", "value": 0.105}, {"measurement": "H3f3b avg_logFC", "value": 0.5088}, {"measurement": "H3f3b pct.1", "value": 0.613}, {"measurement": "Hba-a1 avg_logFC", "value": 0.716}, {"measurement": "Hba-a1 pct.1", "value": 0.165}, {"measurement": "Hba-a2 avg_logFC", "value": 0.5328}, {"measurement": "Hba-a2 pct.1", "value": 0.131}, {"measurement": "Heatr1 avg_logFC", "value": 0.3433}, {"measurement": "Heatr1 pct.1", "value": 0.291}, {"measurement": "Hic2 avg_logFC", "value": 0.2673}, {"measurement": "Hic2 pct.1", "value": 0.15}, {"measurement": "Hif1a avg_logFC", "value": 0.4719}, {"measurement": "Hif1a pct.1", "value": 0.427}, {"measurement": "Hilpda avg_logFC", "value": 0.7698}, {"measurement": "Hilpda pct.1", "value": 0.403}, {"measurement": "Hmox1 avg_logFC", "value": 1.29}, {"measurement": "Hmox1 pct.1", "value": 0.558}, {"measurement": "Hnf4a avg_logFC", "value": 0.559}, {"measurement": "Hnf4a pct.1", "value": 0.835}, {"measurement": "Hnrnpdl avg_logFC", "value": 0.4137}, {"measurement": "Hnrnpdl pct.1", "value": 0.406}, {"measurement": "Hsd17b13 avg_logFC", "value": 0.5284}, {"measurement": "Hsd17b13 pct.1", "value": 0.864}, {"measurement": "Ier5 avg_logFC", "value": 0.2797}, {"measurement": "Ier5 pct.1", "value": 0.134}, {"measurement": "Iigp1 avg_logFC", "value": 0.6118}]}
